Assay results from patent US10124004B2, “Pyrido[3,4-d]pyrimidine derivative and pharmaceutically acceptable salt thereof” (Teijin Pharma Limited, priority 2015, dated 2018).
Where two headings read alike, the source gives them in different places.

Experiments:
CDK4/cyclin D3 = target: T1, CDK4/cyclin D3 (Homo sapiens, UniProt P11802); experiment: Human CDK4/cyclin D3 inhibitory activity (QS S Assist CDK4/Cyclin D3_FP Kit, IMAP fluorescence polarization); type: biochemical
T1 construct: purchased Carna Biosciences, Inc. QS S Assist CDK4/Cyclin D3_FP Kit
How it was run: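 IMAP fluorescence polarization kit: CDK4/cyclin D3 at 12.5-25 ng/well with kit ATP/substrate/metal mix in 20 mM HEPES pH 7.4, 0.01% Tween20, 2 mM DTT, 45 min at room temperature. FP read at 485/535 nm after 30 min binding; IC50 from dose-response fit of percent inhibition versus enzyme and no-enzyme controls.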

CDK2/cyclin A2 = target: T2, CDK2/cyclin A2 (Homo sapiens, UniProt P24941); experiment: Human CDK2/cyclin A2 inhibitory activity (QS S Assist CDK2/Cyclin A2_FP Kit, IMAP fluorescence polarization); type: biochemical
T2 construct: purchased Carna Biosciences, Inc. QS S Assist CDK2/Cyclin A2_FP Kit
How it was run: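 Kinase activity read as fluorescence polarization (485/535 nm) after phosphorylated fluorescent substrate binds IMAP reagent (30 min, RT, dark). Enzyme (2.5 ng/well) reacted 60 min at RT with ATP/substrate/metal in HEPES pH 7.4 buffer with Tween 20 and DTT; no-enzyme wells define 0% activity; IC50 by curve fit.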

[1] = Human CDK4/cyclin D3 inhibitory activity, read-out: CDK4 Activity symbol
[2] = Human CDK2/cyclin A2 inhibitory activity, read-out: CDK2 Activity symbol
[3] = 50% inhibitory concentration against CDK4/cyclin D3, given as class symbol
[4] = 50% inhibitory concentration against CDK2/cyclin A2, given as class symbol

T1 sequence (P11802 whole entry): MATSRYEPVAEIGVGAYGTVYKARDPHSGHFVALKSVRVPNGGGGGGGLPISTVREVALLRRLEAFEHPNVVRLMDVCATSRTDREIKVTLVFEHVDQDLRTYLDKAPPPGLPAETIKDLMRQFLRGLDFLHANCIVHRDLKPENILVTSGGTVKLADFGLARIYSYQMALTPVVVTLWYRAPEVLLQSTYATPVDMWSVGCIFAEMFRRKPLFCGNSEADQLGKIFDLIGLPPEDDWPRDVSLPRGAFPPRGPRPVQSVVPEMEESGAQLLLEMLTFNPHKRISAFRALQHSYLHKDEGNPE
T1 sequence (P30281 whole entry partner): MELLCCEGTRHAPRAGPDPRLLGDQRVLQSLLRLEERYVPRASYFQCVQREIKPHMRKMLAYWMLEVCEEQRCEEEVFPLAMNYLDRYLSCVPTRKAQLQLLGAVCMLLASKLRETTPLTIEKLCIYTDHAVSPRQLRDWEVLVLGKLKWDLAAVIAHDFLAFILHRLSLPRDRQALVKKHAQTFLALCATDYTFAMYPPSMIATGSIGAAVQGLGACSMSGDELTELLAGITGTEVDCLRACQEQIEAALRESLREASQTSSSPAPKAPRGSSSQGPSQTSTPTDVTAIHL

SMILES	IC50 (CDK4/cyclin D3; [1]) [nM]	IC50 (CDK2/cyclin A2; [2]) [nM]	IC50 (CDK4/cyclin D3; [3]) [nM]	IC50 (CDK2/cyclin A2; [4]) [nM]
CC(C)Nc1nc(C(F)F)cc2cnc(Nc3ccc(CN4CCN(CC(F)(F)F)CC4)cn3)nc12 [Compound 116]	10 to 100	≥ 100		
CC(C)Nc1nc([C@@H](C)O)cc2cnc(Nc3ccc4c(n3)CCN(C(=O)CO)C4)nc12 [Compound 651]			< 10	≥ 100
CCCNc1nc([C@@H](C)O)cc2cnc(Nc3ccc(CN4CCN(C(C)CO)CC4)cn3)nc12 (single isomer, unassigned) [Compound 1207]			< 10	≥ 100
CO[C@H](C)c1cc2cnc(Nc3ccc(N4CCCC(O)C4)nn3)nc2c(NC(C)C)n1 (some centres unmarked) [Compound 286]	< 10	≥ 100		
CO[C@H](C)c1cc2cnc(Nc3ccc(N4CCNCC4=O)cn3)nc2c(NC(C)C)n1 [Compound 207]	< 10	≥ 100		
CC(C)Nc1nc(C(F)F)cc2cnc(Nc3ccc(CN4CCNC4=O)cn3)nc12 [Compound 213]	< 10	10 to 100		
C[C@@H](O)c1cc2cnc(Nc3ccc(CN4CCN(CCO)CC4)cn3)nc2c(NCC(F)(F)F)n1 [Compound 1170]			< 10	≥ 100
CC(C)Nc1nc([C@@H](C)O)cc2cnc(Nc3ccc(N4CCN(CC(=O)N5CCOCC5)CC4)nn3)nc12 [Compound 967]			< 10	≥ 100
CN(C)CCN1CCc2nc(Nc3ncc4cc(C5CCOC5)nc(N[C@H]5CCCOC5)c4n3)ccc2C1 (some centres unmarked) [Compound 1178]			< 10	≥ 100
CC(O)c1cc2cnc(Nc3ccc(N4CCNCC4)cn3)nc2c(NC(C)C(F)(F)F)n1 (centres unmarked) [Compound 54]	< 10	≥ 100		
CO[C@H](C)c1cc2cnc(Nc3ccc(CN4CCN(CC(F)F)CC4)cn3)nc2c(NC(C)C)n1 [Compound 281]	10 to 100	≥ 100		
CC(C)Nc1nc([C@@H](C)O)cc2cnc(Nc3ccc(CN4CCNC(=O)C4)cn3)nc12 [Compound 234]	< 10	≥ 100		
c1cc2c(nc1Nc1ncc3cc(C4CCOC4)nc(NC4CCCOC4)c3n1)CCNC2 (single isomer, unassigned) [Compound 943]			10 to 100	≥ 100
CO[C@H](C)c1cc2cnc(Nc3ccc(OC4CCNCC4)cn3)nc2c(NCC2CCOCC2)n1 [Compound 927]			< 10	≥ 100
CC(C)Nc1nc([C@@H](C)O)cc2cnc(Nc3ccc(CN4CCCC(O)C4)cn3)nc12 (some centres unmarked) [Compound 1057]			< 10	≥ 100
CC(C)Nc1nc(C2CCOC2)cc2cnc(Nc3ccc(N4CCNCC4)cn3)nc12 (centres unmarked) [Compound 1007]			< 10	≥ 100
CC(C)Nc1nc([C@@H](C)O)cc2cnc(Nc3ccc(CN4CCN(C)CC4)cn3)nc12 [Compound 548]	< 10	≥ 100		
CC(C)Nc1nc([C@@H](C)O)cc2cnc(Nc3ccc(N4CCn5cncc5C4)nn3)nc12 [Compound 964]			< 10	≥ 100
CO[C@H](C)c1cc2cnc(Nc3ccc(N4CCNCC4)nn3)nc2c(NC2CCC(C)(C)CC2)n1 [Compound 726]			< 10	≥ 100
CC(C)Nc1nc(C(C)O)cc2cnc(Nc3ccc(N4CCOCC4)cn3)nc12 (centres unmarked) [Compound 72]	< 10	≥ 100		

SMILES	IC50 (CDK4/cyclin D3; [1]) [nM]	IC50 (CDK2/cyclin A2; [2]) [nM]	IC50 (CDK4/cyclin D3; [3]) [nM]	IC50 (CDK2/cyclin A2; [4]) [nM]
CC(C)Nc1nc([C@@H](C)O)cc2cnc(Nc3ccc(N4CCN(C(=O)CN(C)C)CC4)nn3)nc12 [Compound 1191]			< 10	≥ 100
CC(C)Nc1nc(C(F)F)cc2cnc(Nc3ccc(CCC(=O)O)cn3)nc12 [Compound 111]	10 to 100	≥ 100		
CC(C)Nc1nc(C(C)O)cc2cnc(Nc3ccc(N4CCN(C(C)CO)CCC4=O)cn3)nc12 (single isomer, unassigned) [Compound 809]			< 10	10 to 100
CC(C)Nc1nc([C@@H](C)O)cc2cnc(Nc3ccc(N4CCN=CC4=O)cn3)nc12 [Compound 731]			< 10	≥ 100
CCCCNc1nc(C(C)=O)cc2cnc(Nc3ccc(CN4CCNCC4)cn3)nc12 [Compound 911]			< 10	≥ 100
CC(C)Nc1nc(C(F)F)cc2cnc(Nc3ccc(CN4CCC(CO)CC4)cn3)nc12 [Compound 147]	< 10	10 to 100		
CCCNc1nc([C@@H](C)O)cc2cnc(Nc3ccc(CN4CCN(CCO)[C@@H](C)C4)cn3)nc12 [Compound 1208]			< 10	≥ 100
O[C@H]1CC[C@H](Nc2nc(C(F)F)cc3cnc(Nc4ccc(CN5CCNCC5)cn4)nc23)CC1 [Compound 386]	< 10	≥ 100		
COCC(C)(C)Nc1nc([C@@H](C)O)cc2cnc(Nc3ccc(OCCN(C)C)cn3)nc12 [Compound 208]	< 10	≥ 100		
CC(=O)c1cc2cnc(Nc3ccc(N4CCNCC4)cn3)nc2c(NC(C)C)n1 [Compound 35]	< 10	≥ 100		
C[C@@H](O)c1cc2cnc(Nc3ccc(CN4CCNCC4)cn3)nc2c(N[C@H]2CCOC2)n1 [Compound 258]	< 10	≥ 100		
CC(C)Nc1nc([C@@H](C)O)cc2cnc(Nc3ccc(O[C@H]4CC[C@H](N(C)C)CC4)cn3)nc12 [Compound 740]			< 10	≥ 100
C[C@@H](O)c1nc(N[C@H]2CC[C@H](O)CC2)c2nc(Nc3ccc(N4CCNCC4)nn3)ncc2c1Cl [Compound 368]	< 10	≥ 100		
CC(C)Nc1nc(C2(C)COC2)cc2cnc(Nc3ccc(N4CCNCC4)cn3)nc12 [Compound 1006]			< 10	≥ 100
CC1(c2cc3cnc(Nc4ccc5c(n4)CCN(C(=O)CO)C5)nc3c(N[C@H]3CCCOC3)n2)COC1 [Compound 1115]			< 10	≥ 100
CC(C)Nc1nc([C@@H](C)O)cc2cnc(Nc3ccc(N4CCN(CC(=O)O)CC4C(F)(F)F)cn3)nc12 (some centres unmarked) [Compound 892]			10 to 100	≥ 100
O=C1CNCCN1c1ccc(Nc2ncc3cc(C(F)F)nc(NC4CCOCC4)c3n2)nc1 [Compound 822]			< 10	10 to 100
CO[C@H](C)c1cc2cnc(Nc3ccc(N4C[C@H]5CCN[C@H]5C4=O)cn3)nc2c(NC(C)C)n1 [Compound 556]	< 10	10 to 100		
CNc1nc(C(C)O)cc2cnc(Nc3ccc(N4CCNCC4)cn3)nc12 (centres unmarked) [Compound 22]	10 to 100	≥ 100		
CC(C)Nc1nc([C@@H](C)O)cc2cnc(Nc3ccc(N4CCC(NC(C)C)CC4)nn3)nc12 [Compound 722]			< 10	≥ 100

SMILES	IC50 (CDK4/cyclin D3; [1]) [nM]	IC50 (CDK2/cyclin A2; [2]) [nM]	IC50 (CDK4/cyclin D3; [3]) [nM]	IC50 (CDK2/cyclin A2; [4]) [nM]
CC(C)Nc1nc(C(F)F)cc2cnc(Nc3ccc(CN4CCCCC4)cn3)nc12 [Compound 177]	< 10	10 to 100		
CCNc1nc([C@@H](C)OC)cc2cnc(Nc3ccc4c(n3)CCN(C(=O)CO)C4)nc12 [Compound 1112]			10 to 100	≥ 100
CO[C@H](C)c1cc2cnc(Nc3ccc(OCCN(C)C)cn3)nc2c(NC(C)C)n1 [Compound 227]	< 10	≥ 100		
CCNc1nc([C@@H](C)O)cc2cnc(Nc3ccc(N4CCN(C)CC4)nn3)nc12 [Compound 980]			< 10	≥ 100
CC(C)Nc1nc([C@@H](C)O)cc2cnc(Nc3ccc(N4CCN(C(C)(C)C(=O)O)CC4)nn3)nc12 [Compound 657]			< 10	≥ 100
CO[C@H](C)c1cc2cnc(Nc3ccc(CN4CCN(CCO)CC4)cn3)nc2c(N[C@H]2CC[C@H](O)CC2)n1 [Compound 917]			< 10	≥ 100
C[C@@H](O)c1cc2cnc(Nc3ccc(N4CCNCC4)cn3)nc2c(NCC2CC2)n1 [Compound 1051]			< 10	≥ 100
CC(C)Nc1nc(C(F)F)cc2cnc(Nc3ccc(CN4CCC(C(=O)NS(C)(=O)=O)CC4)cn3)nc12 [Compound 236]	< 10	10 to 100		
CC(C)Nc1nc([C@@H](C)O)cc2cnc(Nc3ccc(N4CC5(CCNCC5)C4)nn3)nc12 [Compound 575]	< 10	≥ 100		
O=C(CO)N1CCc2nc(Nc3ncc4cc(C5CCOC5)nc(N[C@H]5CCCOC5)c4n3)ccc2C1 (some centres unmarked) [Compound 1114]			< 10	≥ 100
CC(O)c1cc2cnc(Nc3ccc(N4CCNCC4)cn3)nc2c(NC2CCOC2)n1 (centres unmarked) [Compound 92]	< 10	≥ 100		
C[C@@H](O)c1cc2cnc(Nc3ccc(N4CCNCC4=O)cn3)nc2c(NC2CC(F)C2)n1 (some centres unmarked) [Compound 1210]			< 10	≥ 100
CC(C)Nc1nc(C(F)F)cc2cnc(Nc3ccc(CN4CCCC4=O)cn3)nc12 [Compound 165]	< 10	≥ 100		
CO[C@H](C)c1cc2cnc(Nc3ccc(CN4CCNC[C@@H]4C)cn3)nc2c(NC(C)C)n1 [Compound 979]			< 10	≥ 100
CC(C)Nc1nc([C@@H](C)O)cc2cnc(Nc3ccc(CN4CCCCC4)cn3)nc12 [Compound 1038]			< 10	≥ 100
CC(O)c1cc2cnc(Nc3ccc(N4CCNCC4)cn3)nc2c(N(C)C2CCCC2)n1 (centres unmarked) [Compound 10]	< 10	≥ 100		
CC(C)Nc1nc([C@@H](C)O)cc2cnc(Nc3ccc(N4CC5(CNC5)C4)nn3)nc12 [Compound 562]	< 10	≥ 100		
FC(F)c1cc2cnc(Nc3ccc(CN4CCNCC4)cn3)nc2c(NC2CCOCC2)n1 [Compound 364]	< 10	10 to 100		
